Like-named read-outs stand apart in the source and are kept apart here.
What was measured:
[1] = system: HBV replication in HepG2 2.2.15 cells; assay: Antiviral activity: reduction of extracellular HBV DNA in HepG2 2.2.15 cells; format: cell-based, hepatitis B virus; conditions: read-out: ED50 values (concentration resulting in 50% reduction of HBV DNA in the medium of the cells)
Method: The antiviral efficacy of the compounds of at least one embodiment was investigated on HepG2 2.2.15 cells, a human hepatoblastoma cell line which has the replication-competent HBV genome stably integrated therein and produces infectious progeny viruses in a productive manner (Sells et al., Proc Natl Acad Sci USA 1987, 84: 1005-1009).
The above cells were cultured under standardized conditions as specified by Korba and Gerin, and the amount of extracellular viral DNA was determined (Korba et al., Antiviral Res 1992, 19: 55-70).
Following passaging, the HepG2 2.2.15 cells were seeded at a density of about 60% in 12-well plates and cultured to confluence in 10% FBS Dulbecco MEM. Thereafter, the medium was changed to 2% FBS, and the cells were cultured for another 24 hours.
After another change of medium, the cells were treated with varying concentrations of compounds according to at least one embodiment. Every 24 hours the compounds were re-added together with the medium. […]
Following treatment of the culture supernatants with proteinase K, the extracellular viral DNA was amplified by means of PCR using the following primers (forward: 5′-CTCCAGTTCAGGAACAGTAAACCC-3′; reverse: 5′-TTGTGAGCTCAGAAAGGCCTTGTAAGTTGGCG-3′. The PCR products were separated on 1% agarose, stained with ethidium bromide and quantified using a Fluor-S™ Multimager (Biorad).
For calibration of the PCR reaction, serial dilutions of the pUC19 HBV and pTHBV plasmids with known genome equivalents (GE) were used, resulting in a lower detection limit of about 10^3 GE and a linearity between 10^3 and 10^5 GE.

HBV replication = conditions: 5-modified β-L-cytosine nucleosides; compares with compounds with non-modified bases; cited from earlier work
HBV DNA polymerase = biological target: T1, HBV DNA polymerase (Hepatitis B virus genotype D subtype ayw, UniProt P03156); assay: Inhibition of endogenous HBV DNA polymerase activity (3H-dCTP incorporation); format: biochemical; conditions: nucleoside triphosphates; purified virus particles from patient serum; 0.7 μM dCTP; two-hour incubation at 37° C.; read-out: IC50 (50% inhibition of the HBV DNA polymerase activity)
T1 construct: 30 μl of polymerase batch included about 2-4×10^8 purified virus particles (lysed beforehand); from tissue; host or cells: Serum of patients infected with hepatitis B virus (Charité, Berlin); virus particles purified through a saccharose gradient and lysed
T1 sequence (P03156 whole entry): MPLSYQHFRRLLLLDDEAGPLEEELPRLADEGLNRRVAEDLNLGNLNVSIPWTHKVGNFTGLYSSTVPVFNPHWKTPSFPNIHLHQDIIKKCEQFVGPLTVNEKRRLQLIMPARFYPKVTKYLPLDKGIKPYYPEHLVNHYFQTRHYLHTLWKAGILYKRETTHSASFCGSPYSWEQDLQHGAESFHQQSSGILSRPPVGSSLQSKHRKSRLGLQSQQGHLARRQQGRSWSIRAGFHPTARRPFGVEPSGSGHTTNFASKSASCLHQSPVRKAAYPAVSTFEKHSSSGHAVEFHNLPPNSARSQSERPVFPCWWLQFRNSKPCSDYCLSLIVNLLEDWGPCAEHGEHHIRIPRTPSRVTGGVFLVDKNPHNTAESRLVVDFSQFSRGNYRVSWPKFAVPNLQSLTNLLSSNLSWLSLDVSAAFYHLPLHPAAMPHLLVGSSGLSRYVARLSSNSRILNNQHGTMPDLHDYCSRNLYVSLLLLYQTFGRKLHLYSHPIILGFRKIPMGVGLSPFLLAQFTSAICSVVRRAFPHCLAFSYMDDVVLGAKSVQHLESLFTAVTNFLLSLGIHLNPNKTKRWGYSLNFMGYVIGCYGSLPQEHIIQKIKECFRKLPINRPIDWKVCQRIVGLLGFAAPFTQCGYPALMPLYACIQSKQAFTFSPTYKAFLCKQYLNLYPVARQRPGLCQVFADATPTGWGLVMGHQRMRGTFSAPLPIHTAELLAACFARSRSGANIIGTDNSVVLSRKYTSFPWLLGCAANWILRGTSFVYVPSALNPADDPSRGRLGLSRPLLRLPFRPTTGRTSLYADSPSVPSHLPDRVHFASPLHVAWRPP
Method: Synthesis and purification of the triphosphates of β-L-5-methylcytidine nucleosides were effected according to well-known methods (Yoshikawa et al., Tetradedron Lett 1967, 50: 5065-5068; Hoard et Ott, J Am Chem Soc 1965, 87: 1785-1788).
To determine the endogenous HBV DNA polymerase activity, about 60 ml of serum from patients with hepatitis B virus infections from Charité, Berlin (>10^7 HBV particles/ml), was centrifuged at 3000 rpm, followed by sedimentation of the virus particles at 25,000 g, 60 min, taking up in 7 ml of TKM buffer (50 mM Tris-HCl, pH 7.5, 50 mM KCl, 5 mM MgCl2), and centrifugation through a saccharose gradient (0.3 M, 0.6 M, 0.9 M saccharose in 10 ml of TKM buffer each time) at 25,000 g for 20 hours. The purified virus sediment was suspended in 400 μl of TKM using ultrasound, divided in aliquots and frozen at −80° C. (Davies et al., Antiviral Res 1996, 30: 133-145).
30 μl of polymerase batch included about 2-4×10^8 purified virus particles (lysed beforehand in 6% β-mercaptoethanol, 10% Igepal for 15 min at room temperature), 42 mM Tris-HCl, (pH 7.5), 34 mM MgCl2, 340 mM KCl, 22 mM β-mercaptoethanol, 0.4% Igepal, 70 μM TTP, dATP, dGTP and 1 μCi ^3H-dCTP (=0.7 μM dCTP) (Matthes et al., Antimicrob Agents & Chemoth 1991, 35: 1254-1257) and varying concentrations of β-L-5-methylcytidine nucleoside triphosphates.
Following a two-hour incubation at 37° C., 20 μl of each batch was placed on paper filter, washed 5 times with 5% trichloroacetic acid and 0.1% Na pyrophosphate, and the ^3H-dCTP incorporated in the HBV DNA was subsequently measured in a Liquid Scintillation Counter.
Using the concentration-dependent inhibition curves of HBV DNA synthesis, the concentration of β-L-5-methylcytidine nucleoside triphosphates resulting in 50% inhibition of the HBV DNA polymerase activity was determined. The IC50 values are illustrated in Table 2.

HL-60 cells = assay: Cytotoxicity: inhibition of proliferation of HL-60 cells; format: cell-based, human; conditions: RPMI medium, incubated for two days
Method: (§1) To this end, established cells of a human myeloid leukemia (HL-60) in RPMI medium, and the above-mentioned HepG2 cells in Dulbecco MEM, respectively, were incubated for two days using varying concentrations of compounds, and the proliferation rate of the cells was subsequently determined. The data was used to determine the concentration of compounds resulting in 50% inhibition of proliferation (CD50).

HepG2 cells = assay: Cytotoxicity: inhibition of proliferation of HepG2 cells; format: cell-based, human; conditions: Hep G2 cells, Dulbecco MEM, incubated for two days
Method: as §1

HBV infections = conditions: treatment of HBV infections; cited from earlier work
[2] = HepG2 2.2.15 cells, extracellular HBV DNA by PCR, after 9 days of incubation

Compound: Nc1ccn([C@@H]2CS[C@H](CO)O2)c(=O)n1 [3TC, β-L-2′,3′-dideoxy-3′-thiacytidine, reference compound]
- EC50 ([1]; Hepatitis B virus, 216 h, HepG2 2.2.15 cells, extracellular HBV DNA by PCR, after 9 days of incubation): 100 to 200 nM

Compound: Nc1nc(=O)n([C@H]2C[C@H](O)[C@@H](CO)O2)cc1Cl [CldC, β-L-deoxy-5-chlorocytidine]
- effect with respect to HBV replication, as described in the literature (HBV replication): ineffective or sparingly effective

Compound: Nc1nc(=O)n([C@H]2C[C@H](O)[C@@H](CO)O2)cc1F [FdC, β-L-deoxy-5-fluorocytidine]
- effect with respect to HBV replication, as described in the literature (HBV replication): less effective

Compound: Nc1nc(=O)n(C2OC(CO)C=C2F)cc1F [L-2′F-ddeFC, β-L-2′,3′-dideoxy-2′,3′-didehydro-2′-fluoro-5-fluorocytidine]
- effect with respect to HBV replication, as described in the literature (HBV replication): equally effective

Compound: Nc1nc(=O)n([C@H]2O[C@@H](CO)[C@H](O)[C@H]2O)cc1F [L-AraFC, β-L-arabinofuranosyl-5-fluorocytosine]
- effect with respect to HBV replication, as described in the literature (HBV replication): no effect

Compound: Nc1nc(=O)n([C@H]2O[C@@H](CO)[C@H](O)[C@H]2F)cc1Br [L-FABrC, β-L-2′-fluoroarabinofuranosyl-5-bromocytosine]
- effect with respect to HBV replication, as described in the literature (HBV replication): ineffective or sparingly effective

Compound: Nc1nc(=O)n([C@H]2O[C@@H](CO)[C@H](O)[C@H]2F)cc1Cl [L-FAC1C, β-L-2′-fluoroarabinofuranosyl-5-chlorocytidine]
- effect with respect to HBV replication, as described in the literature (HBV replication): ineffective or sparingly effective

Compound: Nc1nc(=O)n([C@H]2O[C@@H](CO)[C@H](O)[C@H]2F)cc1F [L-FAFC, β-L-2′-fluoroarabinofuranosyl-5-fluorocytosine]
- effect with respect to HBV replication, as described in the literature (HBV replication): no effect

Compound: Nc1nc(=O)n([C@H]2CC[C@@H](CO)O2)cc1F [L-FddC, β-L-2′,3′-dideoxy-5-fluorocytidine]
- effect with respect to HBV replication, as described in the literature (HBV replication): equally effective

Compound: Nc1nc(=O)n([C@@H]2C=C[C@H](CO)O2)cc1F [L-FddeC, β-L-2′,3′-dideoxy-2′,3′-didehydro-5-fluorocytidine]
- effect with respect to HBV replication, as described in the literature (HBV replication): more effective

Compound: Nc1ccn([C@@H]2CS[C@H](COP(=O)(O)OP(=O)(O)OP(=O)(O)O)O2)c(=O)n1 [Triphosphate of 3TC, reference compound]
- IC50 (HBV DNA polymerase): 300 nM

Compound: Cc1cn([C@H]2O[C@@H](COP(=O)(O)OP(=O)(O)OP(=O)(O)O)[C@H](O)[C@H]2O)c(=O)nc1N [Triphosphate of β-L-AraMetC]
- IC50 (HBV DNA polymerase): 10800 nM

Compound: Cc1cn([C@@H]2C[C@@H](O)[C@H](COP(=O)(O)OP(=O)(O)OP(=O)(O)O)O2)c(=O)nc1N [Triphosphate of β-L-MetCdR]
- IC50 (HBV DNA polymerase): 900 nM

Compound: Cc1cn([C@@H]2C[C@@H](N=[N+]=[N-])[C@H](COP(=O)(O)OP(=O)(O)OP(=O)(O)O)O2)c(=O)nc1N [Triphosphate of β-L-N3MetCdR]
- IC50 (HBV DNA polymerase): 800 nM

Compound: Cc1cn([C@@H]2CC[C@H](COP(=O)(O)OP(=O)(O)OP(=O)(O)O)O2)c(=O)nc1N [Triphosphate of β-L-ddMetCdR]
- IC50 (HBV DNA polymerase): 6500 nM

Compound: Cc1cn([C@@H]2C=C[C@H](COP(=O)(O)OP(=O)(O)OP(=O)(O)O)O2)c(=O)nc1N [Triphosphate of β-L-ddeMetCdR]
- IC50 (HBV DNA polymerase): 6200 nM

Compound: Cc1cn([C@@H]2C[C@@H](F)[C@H](CO)O2)c(=O)nc1N [β-L-2′,3′-dideoxy-3′-fluoro-5-methylcytidine]
- effect with respect to HBV replication, as described in the literature (HBV replication): ineffective or sparingly effective

Compound: Nc1nc(=O)n(C2CSC(CO)O2)cc1Br [β-L-2′,3′-dideoxy-3′-thia-5-bromocytidine]
- effect with respect to HBV replication, as described in the literature (HBV replication): ineffective or sparingly effective

Compound: Nc1nc(=O)n(C2CSC(CO)O2)cc1Cl [β-L-2′,3′-dideoxy-3′-thia-5-chlorocytidine]
- effect with respect to HBV replication, as described in the literature (HBV replication): ineffective or sparingly effective

Compound: Cc1cn(C2CSC(CO)O2)c(=O)nc1N [β-L-2′,3′-dideoxy-3′-thia-5-methylcytidine]
- effect with respect to HBV replication, as described in the literature (HBV replication): ineffective or sparingly effective

Compound: Cc1cn([C@H]2O[C@@H](CO)[C@H](O)[C@H]2O)c(=O)nc1N [β-L-AraMetC, 1-β-L-arabinofuranosyl-5-methylcytosine]
- Cytotoxicity (CD50), concentration resulting in 50% inhibition of proliferation (HL-60 cells): >2000
- Cytotoxicity (CD50), concentration resulting in 50% inhibition of proliferation (HepG2 cells): >2000
- EC50 ([1]; Hepatitis B virus, HepG2 2.2.15, 216 h): > 20000 nM

Compound: Cc1cn([C@@H]2C[C@@H](O)[C@H](CO)O2)c(=O)nc1N [β-L-MetCdR, β-L-5-methyldeoxycytidine]
- Cytotoxicity (CD50), concentration resulting in 50% inhibition of proliferation (HL-60 cells): >2000
- Cytotoxicity (CD50), concentration resulting in 50% inhibition of proliferation (HepG2 cells): >2000
- EC50 [1, 2]: 270 to 600 nM

Compound: Cc1cn([C@@H]2C[C@@H](N=[N+]=[N-])[C@H](CO)O2)c(=O)nc1N [β-L-N3MetCdR, β-L-3′-azido-2′,3′-dideoxy-5-methylcytidine]
- Cytotoxicity (CD50), concentration resulting in 50% inhibition of proliferation (HL-60 cells): 2000
- Cytotoxicity (CD50), concentration resulting in 50% inhibition of proliferation (HepG2 cells): >2000
- EC50 [1, 2]: 350 to 950 nM

Compound: Cc1cn([C@@H]2CC[C@H](CO)O2)c(=O)nc1N [β-L-ddMetC, β-L-2′,3′-dideoxy-5-methylcytidine]
- EC50 [1, 2]: > 20000 nM

Compound: Cc1cn([C@@H]2C=C[C@H](CO)O2)c(=O)nc1N [β-L-ddeMetC, β-L-2′,3′-didehydro-2′,3′-dideoxy-5-methylcytidine]
- Cytotoxicity (CD50), concentration resulting in 50% inhibition of proliferation (HL-60 cells): 600
- Cytotoxicity (CD50), concentration resulting in 50% inhibition of proliferation (HepG2 cells): 1500
- EC50 [1, 2]: > 20000 nM

Compound: α-interferon
- proportion of the patients in whom it is effective (HBV infections): about 33%

— US20060217345A1, “Beta-L-nucleosides and use thereof as pharmaceutical agents for the treatment of viral diseases” (priority 2003, published 2006)
